Data as given in ChEMBL document CHEMBL1149423, “Novel phenylamino acetamide derivatives as potent and selective kappa opioid receptor agonists” (Bioorg Med Chem Lett, 2006).

Assays:
Mu-type opioid receptor = Mu-type opioid receptor (Homo sapiens, UniProt P35372); assay: Binding affinity to mu opioid receptor
[1] = target: T1, Kappa-type opioid receptor (Homo sapiens, UniProt P41145); assay: Agonist activity at kappa opioid receptor in a [35S]GTP-gamma-S functional assay
[2] = target: Opioid receptors; delta & kappa (Homo sapiens) (UniProt P41145+P41143); assay: Selectivity for kappa opioid receptor over delta opioid receptor; format: protein assay
Chain of Opioid receptors; delta & kappa (Homo sapiens) (P41143 whole entry, looked up): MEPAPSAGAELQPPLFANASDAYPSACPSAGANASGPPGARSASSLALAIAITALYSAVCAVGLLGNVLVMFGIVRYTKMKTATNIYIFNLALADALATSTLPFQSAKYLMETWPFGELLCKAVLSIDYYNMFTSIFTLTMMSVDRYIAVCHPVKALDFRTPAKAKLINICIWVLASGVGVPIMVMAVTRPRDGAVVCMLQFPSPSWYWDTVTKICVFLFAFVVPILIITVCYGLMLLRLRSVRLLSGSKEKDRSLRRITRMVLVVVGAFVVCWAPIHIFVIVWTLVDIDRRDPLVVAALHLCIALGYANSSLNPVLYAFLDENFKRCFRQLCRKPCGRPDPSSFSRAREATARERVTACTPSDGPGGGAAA
Chain of Opioid receptors; delta & kappa (Homo sapiens) (P41145 whole entry, looked up): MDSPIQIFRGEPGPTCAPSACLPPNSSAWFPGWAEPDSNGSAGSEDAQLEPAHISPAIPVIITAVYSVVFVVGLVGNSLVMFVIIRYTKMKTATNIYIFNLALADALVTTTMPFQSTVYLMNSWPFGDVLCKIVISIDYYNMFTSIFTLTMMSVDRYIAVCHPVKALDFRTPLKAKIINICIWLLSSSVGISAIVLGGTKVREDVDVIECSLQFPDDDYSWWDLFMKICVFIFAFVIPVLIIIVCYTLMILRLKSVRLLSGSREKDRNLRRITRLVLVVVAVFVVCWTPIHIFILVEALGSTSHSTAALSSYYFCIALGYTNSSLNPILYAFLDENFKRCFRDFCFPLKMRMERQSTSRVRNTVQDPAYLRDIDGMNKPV

[3] = target: Opioid receptors; mu & kappa (Homo sapiens) (UniProt P41145+P35372); assay: Selectivity for kappa opioid receptor over mu opioid receptor; format: protein assay
Chain of Opioid receptors; mu & kappa (Homo sapiens) (P35372 whole entry, looked up): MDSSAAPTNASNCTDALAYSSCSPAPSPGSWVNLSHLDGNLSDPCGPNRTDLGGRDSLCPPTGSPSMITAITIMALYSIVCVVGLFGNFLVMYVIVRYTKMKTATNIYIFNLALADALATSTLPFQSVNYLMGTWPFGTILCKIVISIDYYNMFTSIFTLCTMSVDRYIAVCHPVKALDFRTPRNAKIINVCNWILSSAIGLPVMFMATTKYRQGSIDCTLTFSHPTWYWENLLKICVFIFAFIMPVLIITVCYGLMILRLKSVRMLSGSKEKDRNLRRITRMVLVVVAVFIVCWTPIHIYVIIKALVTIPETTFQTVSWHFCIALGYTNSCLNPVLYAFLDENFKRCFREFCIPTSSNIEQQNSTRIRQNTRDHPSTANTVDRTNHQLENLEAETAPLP
Chain of Opioid receptors; mu & kappa (Homo sapiens) (P41145 whole entry, looked up): as the sequence (P41145 whole entry, looked up) above

[4] = target: T1, Kappa-type opioid receptor; assay: Binding affinity to kappa opioid receptor
Cytochrome P450 2D6 = Cytochrome P450 2D6 (Homo sapiens, UniProt P10635); assay: Inhibitory activity against CYP2D6; format: ADME
Chain of Cytochrome P450 2D6 (P10635 whole entry): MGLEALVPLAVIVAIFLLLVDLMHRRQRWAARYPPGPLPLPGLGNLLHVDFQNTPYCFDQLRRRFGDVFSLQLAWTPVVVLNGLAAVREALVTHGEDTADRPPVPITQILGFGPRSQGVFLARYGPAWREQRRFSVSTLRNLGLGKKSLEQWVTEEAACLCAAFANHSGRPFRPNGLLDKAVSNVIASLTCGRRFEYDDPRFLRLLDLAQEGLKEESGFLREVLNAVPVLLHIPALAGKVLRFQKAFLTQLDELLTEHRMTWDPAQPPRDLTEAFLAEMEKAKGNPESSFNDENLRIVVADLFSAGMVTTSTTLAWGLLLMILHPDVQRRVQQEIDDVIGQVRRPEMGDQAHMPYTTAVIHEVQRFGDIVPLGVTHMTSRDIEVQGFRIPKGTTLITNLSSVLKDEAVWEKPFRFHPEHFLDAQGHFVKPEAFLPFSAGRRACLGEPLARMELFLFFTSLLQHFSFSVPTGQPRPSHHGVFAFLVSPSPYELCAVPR

Rattus norvegicus = species on record: Rattus norvegicus; assay: Antinociception in rat at 300 ug given intrapaw in late phase formalin-induced flinching assay; format: functional
Mus musculus = assay: Inhibition of acetic acid-induced writhing in mice after sc administration; format: functional

T1 sequence (P41145 whole entry): as the sequence (P41145 whole entry, looked up) above
Chain of Mu-type opioid receptor (P35372 whole entry): as the sequence (P35372 whole entry, looked up) above

Row | SMILES | Ki (Mu-type opioid receptor) | EC50 [1] | Ratio [2] | Ratio [3] | Ki [4] | IC50 (Cytochrome P450 2D6) | Activity (Rattus norvegicus) | ED50 (Mus musculus)
1 | CN(C(=O)CNc1ccc(NS(C)(=O)=O)cc1)[C@H](CN1CC[C@H](O)C1)c1ccccc1 | > 5000 nM | 14 nM | 47 | > 877 | 5.7 nM |  |  | 
2 | CN(C(=O)CNc1ccc([N+](=O)[O-])cc1)[C@H](CN1CC[C@H](O)C1)c1ccccc1 |  | 0.23 nM | 119 | 905 | 0.21 nM | 3400 nM |  | 
3 | CCCS(=O)(=O)Nc1ccc(NCC(=O)N(C)[C@H](CN2CC[C@H](O)C2)c2ccccc2)cc1 |  | 8.3 nM | 87 | 1000 | 1.5 nM | 9000 nM |  | 
4 | CN(C(=O)CNc1ccc(C(F)(F)F)cc1)[C@H](CN1CC[C@H](O)C1)c1ccccc1 |  | 0.8 nM | 256 | 385 | 0.39 nM | 190 nM |  | 
5 | CN(C(=O)CNc1ccccc1CNS(C)(=O)=O)[C@H](CN1CC[C@H](O)C1)c1ccccc1 |  | 0.52 nM | 10 | 85 | 0.78 nM | 1500 nM |  | 
6 | CN(CC(=O)N(C)[C@H](CN1CC[C@H](O)C1)c1ccccc1)c1ccccc1 |  | 0.23 nM | 169 | 1660 | 0.32 nM | 530 nM |  | 
7 | CN(C(=O)CNc1cccc(CNS(C)(=O)=O)c1)[C@H](CN1CC[C@H](O)C1)c1ccccc1 |  | 4.8 nM | 38 | 38 | 3.9 nM | 8700 nM |  | 
8 | CN(C(=O)CNc1ccc(C#N)cc1)[C@H](CN1CC[C@H](O)C1)c1ccccc1 |  | 0.49 nM | 409 | 833 | 0.66 nM | 2500 nM |  | 
9 | CN(C(=O)CNc1ccccc1C#N)[C@H](CN1CC[C@H](O)C1)c1ccccc1 |  | 0.42 nM | 49 | 667 | 0.39 nM | 510 nM |  | 
10 | CC(=O)N(CC(=O)N(C)[C@H](CN1CC[C@H](O)C1)c1ccccc1)c1ccccc1 | > 5000 nM | 7.4 nM | 342 | > 1320 | 3.8 nM | 300 nM |  | 
11 | CN(C(=O)CNc1ccc(CNS(C)(=O)=O)cc1)[C@H](CN1CC[C@H](O)C1)c1ccccc1 |  | 24 nM | 119 | 81 | 16 nM | 8000 nM |  | 
12 | CN(CC(=O)N(C)[C@H](CN1CC[C@H](O)C1)c1ccccc1)c1ccc(C#N)cc1 |  | 2.3 nM | 180 | 250 | 1 nM | 670 nM |  | 
13 | CN(C(=O)CNc1cccc(C#N)c1)[C@H](CN1CC[C@H](O)C1)c1ccccc1 |  | 0.58 nM | 66 | 1140 | 0.5 nM | 3000 nM |  | 
14 | CN(C(=O)CNc1ccccc1)[C@H](CN1CC[C@H](O)C1)c1ccccc1 |  |  | 512 | 5880 |  | 4100 nM | 96.2% | 0.017 mg/kg
15 | CN(C(=O)CNc1ccc(Cl)c(Cl)c1)[C@H](CN1CC[C@H](O)C1)c1ccccc1 |  | 0.27 nM | 91 | 427 | 0.11 nM | 760 nM |  | 
